This data set is described as follows: Water solubility (typical physical properties, Table 1). Conditions: components of the 2% w/w solution of resin in perfluorohexane. It is filed as physicochemical. How it is done:
A solution of a fluoropolymer resin, prepared in accordance with details given in PCT Patent Application No. WO 94/05498 (and documents referred to therein), was prepared by dissolving sufficient of it, at room temperature in perfluorohexane ("FLUTEC" PP-1 from BNFL Fluorochemicals Ltd) to make a 2% w/w solution.

The structures appear in SMILES notation.

In the case of `FC(F)(F)C(F)(F)C(F)(F)C(F)(F)C(F)(F)C(F)(F)F` [SOLVENT, perfluorohexane], the “Water Solubility” value was “Insoluble”.

Values taken from patent EP0851902B1, “METHOD FOR COATING” (F2 Chemicals Ltd., priority 1995, dated 1997).
